Values joined by “and” are separate entries in the source; they are usually repeats but may differ in a detail not shown here. Equal values may be shown once.
Details: Crystal, Calculated from knudsen effusion weight loss

[Br][Al]([Br])[Br] [aluminum bromide]
Details | vapor or sublimation pressure
301 K | 0.00013 kPa
303 K | 0.00018 kPa
306 K | 0.00024 kPa
307 K | 0.00035 kPa and 0.00034 kPa
309 K | 0.00043 kPa and 0.00035 kPa
310 K | 0.00045 kPa
312 K | 0.00049 kPa and 0.00056 kPa and 0.00046 kPa
312.5 K | 0.00054 kPa
314 K | 0.00062 kPa
314.5 K | 0.00071 kPa
315 K | 0.00072 kPa and 0.00068 kPa
315.5 K | 0.00085 kPa
316 K | 0.00071 kPa
316.5 K | 0.00089 kPa
317 K | 0.00095 kPa and 0.00083 kPa
317.5 K | 0.00089 kPa
318 K | 0.00089 kPa
318.5 K | 0.00107 kPa and 0.00102 kPa and 0.00112 kPa
320 K | 0.00107 kPa and 0.00123 kPa
320.5 K | 0.00123 kPa
321 K | 0.00135 kPa
321.5 K | 0.00141 kPa
323 K | 0.00166 kPa [middle of 4 runs]
324 K | 0.0017 kPa and 0.00178 kPa
324.5 K | 0.00191 kPa
325 K | 0.00209 kPa
326 K | 0.00204 kPa and 0.00214 kPa
327 K | 0.0024 kPa and 0.00282 kPa
327.5 K | 0.00234 kPa
328 K | 0.00269 kPa and 0.00251 kPa
330 K | 0.00363 kPa and 0.00324 kPa
330.5 K | 0.00309 kPa
331 K | 0.00389 kPa
332.5 K | 0.00468 kPa
333 K | 0.00457 kPa and 0.00398 kPa
333.5 K | 0.00437 kPa
335 K | 0.00575 kPa
336 K | 0.00575 kPa and 0.00617 kPa and 0.00562 kPa
337 K | 0.00724 kPa
338 K | 0.00741 kPa and 0.00794 kPa
340 K | 0.00933 kPa and 0.00813 kPa
343 K | 0.01259 kPa
344 K | 0.01288 kPa
345 K | 0.01479 kPa
348 K | 0.0195 kPa
351 K | 0.02512 kPa

[I][Al]([I])[I] [aluminum iodide]
Details | vapor or sublimation pressure
359.5 K | 7e-05 kPa
361 K | 0.0001 kPa
364 K | 0.00014 kPa
365 K | 0.00019 kPa and 0.00014 kPa
366.5 K | 0.00017 kPa
367.5 K | 0.00019 kPa
368 K | 0.00019 kPa and 0.00025 kPa
368.5 K | 0.00025 kPa
369.5 K | 0.00025 kPa
371.5 K | 0.00027 kPa
372 K | 0.0003 kPa and 0.00034 kPa
372.5 K | 0.00034 kPa
374.5 K | 0.00049 kPa and 0.00039 kPa and 0.00036 kPa
375.5 K | 0.00044 kPa
376 K | 0.00042 kPa and 0.00049 kPa
377 K | 0.00059 kPa and 0.00049 kPa
378 K | 0.00054 kPa
378.5 K | 0.00059 kPa and 0.00063 kPa
380 K | 0.00068 kPa and 0.00071 kPa
380.5 K | 0.00083 kPa and 0.00078 kPa
381 K | 0.00078 kPa
382 K | 0.00083 kPa
383 K | 0.00093 kPa
383.5 K | 0.00087 kPa
385 K | 0.00126 kPa and 0.00102 kPa
385.5 K | 0.00112 kPa
387 K | 0.00135 kPa
388 K | 0.00135 kPa
389 K | 0.00186 kPa
390 K | 0.0017 kPa and 0.00182 kPa and 0.00174 kPa
391 K | 0.0017 kPa and 0.00209 kPa
393 K | 0.00245 kPa
393.5 K | 0.00214 kPa and 0.00234 kPa
394 K | 0.00257 kPa
395 K | 0.00251 kPa and 0.00282 kPa
396.5 K | 0.00295 kPa
397 K | 0.00324 kPa
397.5 K | 0.00363 kPa
398 K | 0.00347 kPa and 0.00339 kPa
399 K | 0.0038 kPa
399.5 K | 0.00407 kPa and 0.00417 kPa
400 K | 0.00417 kPa
401 K | 0.00437 kPa
402 K | 0.00537 kPa and 0.00501 kPa
403 K | 0.00525 kPa
403.5 K | 0.00562 kPa and 0.0055 kPa
404.5 K | 0.00562 kPa
405 K | 0.00603 kPa and 0.00661 kPa
406 K | 0.00759 kPa
407 K | 0.00759 kPa
408 K | 0.00776 kPa and 0.00794 kPa
408.5 K | 0.00871 kPa
409 K | 0.00933 kPa
409.5 K | 0.00832 kPa
411 K | 0.01047 kPa and 0.01023 kPa
412 K | 0.01175 kPa and 0.01096 kPa
413 K | 0.01288 kPa and 0.01148 kPa
414.5 K | 0.01413 kPa
415 K | 0.01479 kPa and 0.01445 kPa
416 K | 0.01549 kPa and 0.01585 kPa
417 K | 0.0166 kPa
417.5 K | 0.0182 kPa
419.5 K | 0.02188 kPa

Reference: the NIST ThermoML archive (doi:10.1021/je9007553)
